In patent US6075033A, “Anthranilic acid diamides derivatives, their preparation and pharmaceutical use as anti-gastrin agents” (Rotta Research Laboratorium S.p.A, priority 1996, dated 2000):
Each block holds one molecule with its values, some of them ahead of it.

Tests used:
rat = experiment: Anxiolytic activity, elevated plus-maze in the rat; assay type: in vivo
From the text: An important role has in fact recently been postulated for the central CCK-B receptor in anxiety. […] In this experimental model, a compound having anxiolytic activity produces a % increase in the time spent in the open limbs and a % increase in the number of entries to the open limbs.
The results obtained are shown in Table 4 below, in which the activities obtained with various doses of compound 1 administered by an intraperitoneal route (IP) in comparison with a group of animals treated with physiological solution by the same route.

[1] = target: T1, type B (CCK-B) gastrin or cholecystokinin receptors (Oryctolagus cuniculus, UniProt P46627); experiment: Inhibition of the increase in cytosol calcium induced by gastrin in rabbit gastric mucous-membrane cells; assay type: cell-based; details: 5×10-8 gastrin
T1 construct: rabbit gastric mucous-membrane cells were prepared by conventional techniques; endogenous in cells; host or cells: dispersed rabbit gastric mucous-membrane cells (collagenase and pronase)
T1 sequence (P46627 1-452): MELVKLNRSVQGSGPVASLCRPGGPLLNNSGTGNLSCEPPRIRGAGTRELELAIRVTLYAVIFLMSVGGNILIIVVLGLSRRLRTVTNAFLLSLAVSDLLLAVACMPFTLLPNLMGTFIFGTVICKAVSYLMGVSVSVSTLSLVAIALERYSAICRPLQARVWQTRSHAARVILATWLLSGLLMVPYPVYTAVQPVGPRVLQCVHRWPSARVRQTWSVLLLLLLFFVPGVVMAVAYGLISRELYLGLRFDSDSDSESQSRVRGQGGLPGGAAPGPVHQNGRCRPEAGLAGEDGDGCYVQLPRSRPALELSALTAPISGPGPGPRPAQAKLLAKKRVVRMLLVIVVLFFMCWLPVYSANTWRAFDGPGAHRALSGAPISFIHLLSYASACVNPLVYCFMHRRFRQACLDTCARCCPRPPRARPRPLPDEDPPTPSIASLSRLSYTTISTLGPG
From the text: The parietal cells of the gastric mucous membrane are responsible for the secretion of HCl. They have specific membrane receptors which can be activated by gastrin and which have been defined as type B (CCK-B) gastrin or cholecystokinin receptors.
Since it has been observed that the activation of CCK-B receptors by gastrin leads to an increase in the level of cytosol calcium ions, a technique of measurement of the increase in intracellular calcium induced by gastrin in the presence and in the absence of the compounds of the invention was used as an indication of the anti-gastrin activity of the compounds.
Suspensions (0.8×10^6 /ml) of rabbit gastric mucous-membrane cells were prepared by conventional techniques with the use of collagenase and pronase as digestive enzymes; the basal [Ca^2+ ]i values, that is, those reached […] stimulation of the cellular system, were estimated in accordance with Grynkiewicz et al [J. Biol. Chem. 260 (1985), 3440]. In the control samples, the cells were stimulated with […], whereas in the samples in which the effect of the compounds of the invention was evaluated, the cells were incubated with these compounds before stimulation with gastrin. The results are expressed as percentage increments of [Ca^2+ ]i with reference to the control value. The anti-gastrin activity of the compounds was expressed as the IC50 value, that is, the concentration (in micromoles/liter) at which the response to the stimulus induced by gastrin was reduced by 50%.

central CCK-B receptor [2] = experiment: Inhibition of the binding of [3H]-[pBC264]CCK-7 to guinea-pig cortex membranes; details: CCK-B binding (Table 2) compared with CCK-A gall bladder activity
From the text: (§1) [3-H][pBC264]CCK-7 was used to evaluate the ability of the compounds of the invention to interact with the central CCK-B receptor. This ligand has been show: to be selective for the CCK-B receptors since it has an affinity for the cortex (CCK-B) receptors 3 logarithmic orders of magnitude greater than for those of the pancreas (CCK-A) in the guinea pig (C. Durieux et al. Eur. J. Pharmacol. 168 (1989 page 269].
(§2) Cerebral cortexes of male albino guinea pigs were therefore used with the method given above, to obtain a membrane content corresponding to about 300 mcg of proteins/ml incubated with a final concentration of 0.2 nM of radioligand.
(§3) The results obtained for some of the compounds of the invention are shown in Table 2 in which the IC50, that is, the concentration (in micromoles/liter) of the antagonist which can displace 50% of the [3-H](pBC264]CCK-7 from the receptor, is given.

central CCK-B receptor [3] = target: T2, central CCK-B receptor (Cavia porcellus, UniProt H0VZC5); experiment: as above; details: for IC50: guinea-pig cortex membranes, 0.2 nM radioligand, read-out: IC50, displacement of [3H][pBC264]CCK-7 from the receptor; for times less active than the corresponding (R) derivative: on average, CCK-B binding
T2 construct: Cerebral cortexes of male albino guinea pigs were therefore used; from tissue; host or cells: cerebral cortex membranes of male albino guinea pigs
T2 sequence (H0VZC5 1-426): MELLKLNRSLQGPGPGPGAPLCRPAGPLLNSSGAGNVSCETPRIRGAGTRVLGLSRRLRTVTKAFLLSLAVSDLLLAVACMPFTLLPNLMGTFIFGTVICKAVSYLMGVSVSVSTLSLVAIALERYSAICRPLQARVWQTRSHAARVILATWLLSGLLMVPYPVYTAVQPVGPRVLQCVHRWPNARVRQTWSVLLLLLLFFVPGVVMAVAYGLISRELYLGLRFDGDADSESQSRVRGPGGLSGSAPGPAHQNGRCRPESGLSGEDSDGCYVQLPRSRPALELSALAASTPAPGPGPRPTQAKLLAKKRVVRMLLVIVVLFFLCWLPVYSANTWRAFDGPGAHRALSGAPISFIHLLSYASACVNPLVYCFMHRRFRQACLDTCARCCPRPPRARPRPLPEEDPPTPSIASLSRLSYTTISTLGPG
From the text: as §1, §2, §3

IC50, inhibition of gastrin-induced increase in cytosol calcium [1]: 4.3 nM
affinity for the gastrin receptor (CCK-B) relative to the cholecystokinin receptor (CCK-A) (central CCK-B receptor [2]): at least 1000 times
IC50 (central CCK-B receptor [3]): 5.1 nM
Structure (SMILES): Cc1cc(C)c(NC(=O)C[C@H](CC(=O)O)c2cccc3ccccc23)c(C(=O)N2CCC3(CCCC3)CC2)c1 [Compound 1]
% effect Vs controls (entries open limbs/total entries) (rat; 0.03 mg/kg I.P.): 32.6%
% effect Vs controls (time open limbs/total time) (rat; 0.03 mg/kg I.P.): 26.4%
Entries open limbs/total entries (%) (rat; 0.03 mg/kg I.P.): 42.2%
Time open limbs/total time (%) (rat; 0.03 mg/kg I.P.): 27.5%
% effect Vs controls (entries open limbs/total entries) (rat; 0.3 mg/kg I.P.): 31.5%
% effect Vs controls (time open limbs/total time) (rat; 0.3 mg/kg I.P.): 50.9%
% of time spent in the open limbs vs control group (in words) (rat; 0.3 mg/kg I.P.): this increase is significant
Entries open limbs/total entries (%) (rat; 0.3 mg/kg I.P.): 41.8%
Time open limbs/total time (%) (rat; 0.3 mg/kg I.P., (*) Duncan test p < 0.05 vs control group): 32.8%
% effect Vs controls (entries open limbs/total entries) (rat; 3.0 mg/kg I.P.): 26.3%
% effect Vs controls (time open limbs/total time) (rat; 3.0 mg/kg I.P.): 38.5%
Entries open limbs/total entries (%) (rat; 3.0 mg/kg I.P.): 40.2%
Time open limbs/total time (%) (rat; 3.0 mg/kg I.P.): 30.1%
% of entries to the open limbs over total entries vs controls (in words) (rat; dose range 0.03-3 mg/kg I.P.): increases the % of entries to the open limbs
anxiolytic activity (in words) (rat; plus maze, I.P.): shows anxiolytic activity

IC50, inhibition of gastrin-induced increase in cytosol calcium [1]: 3.5 nM
IC50 (central CCK-B receptor [3]): 2.5 nM
Structure (SMILES): Cc1cc(Cl)c(NC(=O)C[C@H](CC(=O)O)c2cccc3ccccc23)c(C(=O)N2CCC3(CCCC3)CC2)c1 [Compound 2]

IC50, inhibition of gastrin-induced increase in cytosol calcium [1]: 68.8 nM
IC50 (central CCK-B receptor [3]): 54.7 nM
times less active than the corresponding (R) derivative (central CCK-B receptor [3]): ~10 times
Structure (SMILES): Cc1cc(C)c(NC(=O)C[C@@H](CC(=O)O)c2cccc3ccccc23)c(C(=O)N2CCC3(CCCC3)CC2)c1 [Compound 4]

IC50, inhibition of gastrin-induced increase in cytosol calcium [1]: 82 nM
IC50 (central CCK-B receptor [3]): 22.9 nM
times less active than the corresponding (R) derivative (central CCK-B receptor [3]): ~10 times
Structure (SMILES): Cc1cc(Cl)c(NC(=O)C[C@@H](CC(=O)O)c2cccc3ccccc23)c(C(=O)N2CCC3(CCCC3)CC2)c1 [Compound 5]
